Test results from patent publication US20070299114A1, “Biaryl Derivatives” (Shionogi & Co., Ltd., priority 2004, published 2007).

Tests used:
[1] = biological target: T1, dihydrooroate dehydrogenase (Homo sapiens, UniProt Q02127); test: dihydroorotate dehydrogenase inhibition, U-937 mitochondrial/microsomal fraction, DCIP absorbance at 620 nm; assay type: biochemical; conditions: DHODH of human U-937 cell mitochondrial/microsomal fraction; 37° C., 120 minutes
T1 construct: ultracentrifugation at 4° C. and 120,000×g for 60 minutes afforded a mitochondrial/microsomal fraction; endogenous in cells; host or cells: U-937 (human histiocytic lymphoma cell line), mitochondrial/microsomal fraction
Description: Method of Testing dihydrooroate dehydrogenase Inhibition
Human U-937 cell (human histiocytic lymphoma cell line) was sonicated in a homogenizing buffer (20 mM Tris-HC1, pH 7.4, containing 2 mM EDTA and protease inhibitor cocktail), and this was centrifuged at 4° C. and 1,200×g for 15 minutes to remove cell debris. Further, ultracentrifugation at 4° C. and 120,000×g for 60 minutes afforded a mitochondrial/microsomal fraction. The resulting fraction was quantitated for a protein, and prepared to 10 mg/ml, which was freezing-stored in a −40° C. in a refrigerator until measurement. To 150 μl of the reaction solution (50 mM Tris-HC1, pH 7.4, containing 0.1% Triton X-100, 1 mM KCN, 100 μM coenzyme Q10, 200 μM DCIP), were added 10 μl of a dilution series of the compound and 0.2 mg of a mitochondrial/microsomal fraction, followed by pre-incubation at 37° C. for 30 minutes. Then, 20 μl of a 5 mM DHO solution (final concentration […]), which is a substrate, was added, this was incubated at 37° C. for 120 minutes, and an absorbance at a measurement wavelength of 620 nm was measured. A rate of suppression of a compound at each concentration relative to a change in an absorbance due to the enzyme reaction was obtained, and a concentration indicating 50% inhibition (IC50 value) was calculated to assess the inhibition activity of the compound.

[2] = system: Human lymphocyte; test: suppression of IgE antibody production in human lymphocyte stimulated with anti-human CD40 antibody and IL-4; assay type: cell-based; conditions: 216 h; IgE antibody production by human lymphocyte, anti-human CD40 antibody + IL-4, cultured for 9 days, ELISA
Description: Effect of Suppressing Antibody Production Using Human Lymphocyte
1) Human Peripheral Blood
Human peripheral blood was collected with a plastic syringe containing heparin (final concentration 1.5%) from a vein of an adult healthy person, and subjected to collection of lymphocyte immediately after blood collection.
To the RPMI medium (Sigma) were added 10% of fetal bovine serum, (HyClone Lab.) which had been immobilized at 56° C. for 30 minutes, penicillin (100 units/ml) and streptomycin (100 μg/ml) (Invitrogen), which was used.
The present compound was dissolved in dimethyl sulfoxide (Nakalai Tesque) to 2 mg/ml and, thereafter, the solution was diluted with a medium to a final concentration of 0.01 pg/ml to 10 μg/ml.
Human peripheral blood was mixed with an equal amount of PBS-10 mM EDTA, 10 ml of this was overlaid on a tube containing 3 ml of Ficoll-Paque Plus (Pharmacia Biotech), followed by centrifugation at room temperature and 300×g for 30 minutes to obtain a lymphocyte layer. The collected cell suspension was centrifugation-washed with a sterilized Hanks's balanced salt solution (Invitrogen), passed through a nylon mesh, and centrifugation-washed with a medium, which was used in an experiment as human lymphocyte.
5) Inducement of IgE Antibody Production Due to B cell Stimulation
Human lymphocyte was seeded on a 96-well culturing plate (Sumitomo Bakelite) to 2×10^5 cells per well, and the compound, an anti-human CD40 antibody (Pharmingen, 2 μg/ml), and human recombinant interleukin-4 (IL-4) (PEPROTECH, 0.1 μg/ml) were added, followed by culturing at 37° C. under the presence of 5% CO2 (0.2 ml/well). After cultured for 9 days, an amount of an antibody produced in the supernatant was quantitated by a specific ELISA method.
6) Quantitation of IgE Antibody
For quantitating IgE, a commercially available kit, MESACUP IgE Test (Medical & Biological Laboratories Co., Ltd.) was used. An experimental method was according to the manual, an experiment was performed duplicately, and an average was obtained.

[3] = system: anti-OVA IgE antibody; test: suppression of IgE antibody production to anti-ovalbumin (OVA) in immunized mice, PCA titer; assay type: in vivo; conditions: anti-OVA IgE antibody value (PCA titer, Log2 of maximum serum dilution rate) in BALB/c mice
Description: Effect of Suppression of IgE Antibody Production to Anti-Ovalbumin (OVA)
BALB/c mice (female, 8 to 10 week old) purchased from Japan Charles River (Kanagawa) and Wistar rats (female, 8 to 10 week old) purchased from Japan SLC (Sizuoka) were used.
BALB/c mice were immunized by intraperitoneally injecting 0.2 ml of a solution obtained by suspending 2 μg of ovalbumin (OVA) and an aluminum hydroxide gel (1 mg) in a brine. After ten days, blood was taken from a heart, the serum was separated, and an IgE antibody value was measured.
[…] Administration was performed from immunization date to the day before blood collection for consecutive 10 days.
4) Measurement of Anti-OVA IgE Antibody Value (PCA Titer)
The resulting mouse serum was prepared into a 2-fold dilution series with a brine, and each 50 μl of this was subcutaneously injected into a back of a pre-shaved Wistar rat. After 24 hours, 0.5 ml of a brine containing 1 mg of OVA and 5 mg of an Evans Blue dye was intravenously injected to induce a passive skin anaphylactic reaction (PCA).

[4] = dose 10 mg/kg orally for consecutive 10 days

T1 sequence (Q02127 whole entry): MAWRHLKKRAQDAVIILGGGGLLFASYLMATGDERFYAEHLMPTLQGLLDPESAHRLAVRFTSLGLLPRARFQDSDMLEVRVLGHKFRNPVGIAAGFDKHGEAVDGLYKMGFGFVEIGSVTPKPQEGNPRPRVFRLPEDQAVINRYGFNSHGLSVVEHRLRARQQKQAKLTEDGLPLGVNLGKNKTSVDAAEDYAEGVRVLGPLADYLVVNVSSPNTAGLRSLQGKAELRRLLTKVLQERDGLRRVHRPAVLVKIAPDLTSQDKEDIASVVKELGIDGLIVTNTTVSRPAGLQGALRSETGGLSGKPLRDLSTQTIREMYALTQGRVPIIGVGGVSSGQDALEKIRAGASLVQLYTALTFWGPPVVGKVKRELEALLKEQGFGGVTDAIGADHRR

Row | SMILES | IC50 [1] | also measured
1 | COc1c(C)c(-c2ccc(NCc3ccc(C)o3)cc2)c(OC)c(C)c1/C=C(\C)C(=O)O [Compound 571] |  | IC50 [2]: 6.4 ng/mL; PCA [3, 4]: 1.3
2 | C/C(=C\c1c(C)c(F)c(-c2ccc(NC(C)C)cc2)c(C)c1F)C(=O)NC1CC1 [Compound 488] | 10 nM | 
3 | CO/C(=C\c1cc(C)c(-c2ccc(NC(C)C)cc2F)cc1C)C(=O)NC(C)C [Compound 292] | 2.76 nM | 
4 | C/C(=C\c1c(C)c(C)c(-c2ccc3[nH]ccc3c2)c(C)c1C)C(=O)NC(C)C [Compound 427] | 13.1 nM | 
5 | C/C(=C\c1cc(C)c(-c2ccc(NC(C)C)cc2F)cc1C)C(=O)NC1CC1 [Compound 154] | 7.88 nM | 
6 | CC(C)=CCNc1ccc(-c2cc(C)c(/C=C(\C)C(=O)NC(C)C)cc2C)c(F)c1 [Compound 116] | 3.67 nM | 
7 | C/C(=C\c1c(C)c(C)c(-c2ccc(NCc3ccco3)cc2)c(C)c1C)C(=O)NC1CC1 [Compound 425] | 0.91 nM | 
8 | C/C(=C\c1cc(C)c(-c2ccc3[nH]ccc3c2)cc1C)C(=O)NC(C)C [Compound 76] |  | IC50 [2]: 1.6 ng/mL; PCA [3, 4]: 4.3
9 | C/C(=C\c1c(C)c(C)c(-c2ccc(NC(C)C)cc2)c(C)c1C)C(=O)NC(C)C [Compound 415] | 6.11 nM | 
10 | C/C(=C\c1c(C)c(F)c(-c2ccc(NC(C)C)cc2)c(C)c1F)C(=O)O [Compound 486] |  | IC50 [2]: 13.5 ng/mL; PCA [3, 4]: 0<
11 | CC/C(=C\c1cc(C)c(-c2ccc(NC(C)C)cc2F)cc1C)C(=O)NC1CC1 [Compound 165] | 10.1 nM | 
12 | C/C(=C\c1c(C)c(C)c(-c2ccc(NC3CCCC3)cc2)c(C)c1C)C(=O)NC1CC1 [Compound 426] | 1.01 nM | 
13 | COc1c(C)c(-c2ccc(NC3CCCCC3)cc2)c(OC)c(C)c1/C=C(\C)C(=O)N[C@H](C)C(=O)O [Compound 562] |  | IC50 [2]: 8.4 ng/mL; PCA ([3]; dose 40 mg/kg orally for consecutive 10 days): 0<
14 | C/C(=C\c1c(C)c(C)c(-c2ccc(NC(C)C)cc2)c(C)c1C)C(=O)NC1CC1 [Compound 424] | 2.56 nM | 
15 | C/C(=C\c1c(C)c(C)c(-c2ccc(NCc3ccco3)cc2)c(C)c1C)C(=O)NC(C)C [Compound 418] | 2.79 nM | 
16 | C/C(=C\c1c(C)c(C)c(-c2ccc(NC3CCCC3)cc2)c(C)c1C)C(=O)NC1CCCC1 [Compound 463] | 9.22 nM | 
17 | Cc1cc(-c2cc(O)c3[nH]ccc3c2)c(C)cc1/C=C(\Cl)C(=O)NC1CC1 [Compound 268] | 5.78 nM | 
18 | CC/C=C/CNc1ccc(-c2c(C)c(OC)c(/C=C(\C)C(=O)O)c(C)c2OC)cc1 [Compound 585] |  | IC50 [2]: 4.8 ng/mL; PCA [3, 4]: 1.0
19 | CC/C(=C\c1cc(C)c(-c2ccc(NC(C)C)cc2)cc1C)C(=O)NC1CCCC1 [Compound 142] |  | IC50 [2]: 8.4 ng/mL; PCA [3, 4]: 0.0
20 | COc1c(C)c(-c2ccc(NCC=C(C)C)cc2)c(OC)c(C)c1/C=C(\C)C(=O)NC1CCCC1 [Compound 575] | 9.65 nM | 
21 | CC/C(=C\c1cc(C)c(-c2ccc(NC(C)C)cc2F)cc1C)C(=O)NC1CCCC1 [Compound 321] | 6.39 nM | 
22 | CC/C(=C\c1cc(C)c(-c2ccc(NC3CCCC3)cc2F)cc1C)C(=O)NC1CCCCC1 [Compound 325] | 10.2 nM | 
23 | C/C(=C\c1cc(C)c(-c2ccc(NCc3ccco3)cc2F)cc1C)C(=O)NC(C)C [Compound 158] | 7.13 nM | 
24 | Cc1cc(-c2ccc3[nH]ccc3c2)c(C)cc1/C=C(\Cl)C(=O)N[C@H](C)C(=O)O [Compound 299] | 9.57 nM | 
25 | COc1cc(-c2ccc(NCc3ccco3)cc2F)c(OC)cc1/C=C(/F)C(=O)NC1CC1 [Compound 41] | 8.14 nM | 
26 | Cc1c(F)c(-c2ccc(NC3CCCC3)cc2)c(C)c(F)c1/C=C(\F)C(=O)NC(C)C [Compound 518] | 7.2 nM | 
27 | COc1c(C)c(-c2ccc(NC3CCCC3)cc2)c(OC)c(C)c1/C=C(\C)C(=O)NC1CCCC1 [Compound 536] | 8.39 nM | 
28 | C/C(=C\c1cc(C)c(-c2cccc3[nH]ccc23)cc1C)C(=O)NC1CC1 [Compound 281] | 5.23 nM | 
29 | C/C(=C\c1c(C)c(C)c(-c2ccc(NC(C)C)cc2F)c(C)c1C)C(=O)NS(=O)(=O)c1ccccc1 [Compound 422] | 6.49 nM | 

More lines, main results first:

Row | IC50 [1] | SMILES | also measured
30 | 7.52 nM | COc1cc(-c2ccc(NC(C)C)cc2F)c(OC)cc1/C=C(\C)C(=O)NC1CC1 [Compound 24] | 
31 | 11.1 nM | CC/C(=C\c1cc(C)c(-c2ccc(NC3CCCC3)cc2)cc1C)C(=O)NC1CCCC1 [Compound 313] | 
32 | 13.6 nM | C/C(=C\c1cc(C)c(-c2ccc3[nH]c(C)cc3c2)cc1C)C(=O)NC(C)C [Compound 383] | 
33 | 7.31 nM | Cc1cc(-c2cc(O)c3[nH]ccc3c2)c(C)cc1/C=C(\Cl)C(=O)NC(C)C [Compound 267] | 
34 | 9.8 nM | CC/C(=C\c1c(C)c(OC)c(-c2ccc(NC(C)C)cc2)c(C)c1OC)C(=O)NC(C)C [Compound 530] | 
35 | 3.33 nM | COc1c(C)c(-c2ccc(NC(C)C)cc2)c(OC)c(C)c1/C=C(\C)C(=O)NC1CCCC1 [Compound 528] | 
36 | 4.07 nM | CC/C(=C\c1cc(C)c(-c2ccc(NCc3ccco3)cc2)cc1C)C(=O)NC1CCCC1 [Compound 309] | 
37 | 7.13 nM | CC/C(=C\c1cc(C)c(-c2ccc(NC3CCCC3)cc2F)cc1C)C(=O)NC1CC1 [Compound 173] | 
38 | 8.84 nM | C/C(=C\c1cc(C)c(-c2ccc(NC3CCCC3)cc2)cc1C)C(=O)NC(C)(C)C [Compound 414] | 
39 | 7.33 nM | COc1cc(-c2ccc(NCc3ccco3)cc2F)c(OC)cc1/C=C(\C)C(=O)NC1CC1 [Compound 28] | 
40 | 8.97 nM | C/C(=C\c1cc(C)c(-c2ccc(NC(C)C)cc2F)cc1C)C(=O)N[C@H](C)C(=O)O [Compound 349] | 
41 | 6.71 nM | C/C(=C\c1c(C)c(C)c(-c2ccc3[nH]ccc3c2)c(C)c1C)C(=O)NC1CC1 [Compound 417] | 
42 | 4.68 nM | CC/C(=C\c1cc(C)c(-c2ccc(NC3CCCC3)cc2F)cc1C)C(=O)NC1CCCC1 [Compound 324] | 
43 | 2.63 nM | C/C(=C\c1c(C)c(C)c(-c2ccc(NC3CCCC3)cc2)c(C)c1C)C(=O)NC(C)C [Compound 416] | 
44 | 2.39 nM | C/C(=C\c1c(C)c(C)c(-c2ccc(NC(C)C)cc2)c(C)c1C)C(=O)NC1CCCC1 [Compound 434] | 
45 | 10.1 nM | COc1cc(-c2ccc(NCc3ccco3)cc2F)c(OC)cc1/C=C(/F)C(=O)NC(C)C [Compound 42] | 
46 | 6.1 nM | COC(=O)[C@@H](C)NC(=O)/C(C)=C/c1cc(C)c(-c2ccc(NC(C)C)cc2F)cc1C [Compound 348] | 
47 | 9.32 nM | COc1c(C)c(-c2ccc(NCC=C(C)C)cc2)c(OC)c(C)c1/C=C(\C)C(=O)NC(C)C [Compound 574] | 
48 | 7.73 nM | COc1cc(-c2ccc(NCc3ccco3)cc2F)c(OC)cc1/C=C(\C)C(=O)NC(C)C [Compound 27] | 
49 | 2.46 nM | C/C(=C\c1cc(C)c(-c2ccc(NCc3ccco3)cc2F)cc1C)C(=O)NC1CCCC1 [Compound 334] | 
